Source: patent US12275731B2, “Azaindole inhibitors of wild-type and mutant forms of LRRK2” (DANA-FARBER CANCER INSTITUTE, INC., priority 2018, dated 2025)

Columns and labels:
Assay in all cases: KinomeScan profiling
Type in all cases: binding
BIKE = molecular target: T1, BIKE (Homo sapiens, UniProt Q9NSY1); conditions: read-out: % control
T1 construct: purchased KinomeScan®
Procedure, shortened: (§1)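 At 1 μM in DMSO, compounds are run through a broad 468-member kinase panel. The luminescent read-out is normalised so that vehicle gives 100% and a positive control gives 0%; any kinase falling below 35% is treated as a target.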

DCAMKL3 = molecular target: T2, DCAMKL3 (Homo sapiens, UniProt Q9C098); conditions: DCAMKL3, 1 μM; read-out: % control
T2 sequence (Q9C098 1-648): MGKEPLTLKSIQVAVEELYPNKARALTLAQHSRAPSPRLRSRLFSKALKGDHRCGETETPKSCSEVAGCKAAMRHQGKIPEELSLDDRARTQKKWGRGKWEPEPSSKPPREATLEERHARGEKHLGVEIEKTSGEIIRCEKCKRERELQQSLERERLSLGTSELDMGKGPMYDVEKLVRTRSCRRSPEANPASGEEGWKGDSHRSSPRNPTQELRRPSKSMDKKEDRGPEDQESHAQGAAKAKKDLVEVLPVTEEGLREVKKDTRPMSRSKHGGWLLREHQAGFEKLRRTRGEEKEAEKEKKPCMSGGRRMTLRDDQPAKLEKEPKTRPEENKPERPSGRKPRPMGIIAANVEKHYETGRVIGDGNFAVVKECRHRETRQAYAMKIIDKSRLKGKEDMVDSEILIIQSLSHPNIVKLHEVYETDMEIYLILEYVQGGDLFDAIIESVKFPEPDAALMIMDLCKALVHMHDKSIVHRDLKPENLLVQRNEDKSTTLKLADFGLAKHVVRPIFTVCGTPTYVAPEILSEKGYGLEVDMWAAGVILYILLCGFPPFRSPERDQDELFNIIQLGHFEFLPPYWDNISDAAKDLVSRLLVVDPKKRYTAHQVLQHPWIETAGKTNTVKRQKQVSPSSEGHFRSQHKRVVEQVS
Procedure, shortened: as §1

LZK = molecular target: T3, LZK (Homo sapiens, UniProt O43283); conditions: read-out: % control
T3 sequence (O43283 1-966): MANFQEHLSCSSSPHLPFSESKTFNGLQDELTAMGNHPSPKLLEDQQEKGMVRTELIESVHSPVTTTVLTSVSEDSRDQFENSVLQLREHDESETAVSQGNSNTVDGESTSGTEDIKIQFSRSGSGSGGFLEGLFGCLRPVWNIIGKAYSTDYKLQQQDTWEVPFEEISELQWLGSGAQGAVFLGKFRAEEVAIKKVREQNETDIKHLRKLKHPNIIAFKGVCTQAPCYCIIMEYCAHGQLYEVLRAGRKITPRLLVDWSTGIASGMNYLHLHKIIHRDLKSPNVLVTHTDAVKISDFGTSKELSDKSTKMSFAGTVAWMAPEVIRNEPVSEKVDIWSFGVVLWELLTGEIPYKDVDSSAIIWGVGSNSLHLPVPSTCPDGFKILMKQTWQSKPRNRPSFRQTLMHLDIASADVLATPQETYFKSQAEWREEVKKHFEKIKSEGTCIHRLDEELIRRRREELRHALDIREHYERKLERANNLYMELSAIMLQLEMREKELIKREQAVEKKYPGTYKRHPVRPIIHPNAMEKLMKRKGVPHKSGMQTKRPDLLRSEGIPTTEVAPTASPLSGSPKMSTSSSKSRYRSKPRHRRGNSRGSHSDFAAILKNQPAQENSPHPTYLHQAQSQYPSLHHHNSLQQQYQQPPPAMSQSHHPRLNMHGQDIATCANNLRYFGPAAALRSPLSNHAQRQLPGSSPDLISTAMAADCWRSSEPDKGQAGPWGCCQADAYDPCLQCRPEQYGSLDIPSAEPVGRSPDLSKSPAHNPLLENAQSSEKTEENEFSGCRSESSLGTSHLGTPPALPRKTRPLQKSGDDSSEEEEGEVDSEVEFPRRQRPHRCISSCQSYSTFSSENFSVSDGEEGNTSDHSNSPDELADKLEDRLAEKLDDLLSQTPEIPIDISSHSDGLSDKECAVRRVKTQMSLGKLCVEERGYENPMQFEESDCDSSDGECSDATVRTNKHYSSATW
Procedure, shortened: as §1

PCTK3 = PCTK3 (Homo sapiens, UniProt Q07002); conditions: PCTK3, 1 μM; read-out: % control
Sequence of PCTK3 (Q07002 whole entry): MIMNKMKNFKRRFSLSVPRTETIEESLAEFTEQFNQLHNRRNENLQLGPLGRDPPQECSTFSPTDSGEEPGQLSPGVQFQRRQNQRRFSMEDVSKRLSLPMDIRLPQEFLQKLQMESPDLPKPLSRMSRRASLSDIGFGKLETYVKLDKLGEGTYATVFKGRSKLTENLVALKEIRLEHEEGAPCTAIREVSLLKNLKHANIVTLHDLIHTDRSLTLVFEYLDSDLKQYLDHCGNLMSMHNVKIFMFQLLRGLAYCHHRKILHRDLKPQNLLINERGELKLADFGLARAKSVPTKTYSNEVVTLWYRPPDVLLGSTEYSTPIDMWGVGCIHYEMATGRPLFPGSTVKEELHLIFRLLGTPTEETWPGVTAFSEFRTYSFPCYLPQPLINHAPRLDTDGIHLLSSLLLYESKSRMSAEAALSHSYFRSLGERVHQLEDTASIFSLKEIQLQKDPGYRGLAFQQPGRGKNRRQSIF
Procedure, shortened: as §1

SRPK3 = molecular target: T4, SRPK3 (Homo sapiens, UniProt Q9UPE1); conditions: SRPK3, 1 μM; read-out: % control
T4 construct: purchased KinomeScan® (panel service)
T4 sequence (Q9UPE1 whole entry): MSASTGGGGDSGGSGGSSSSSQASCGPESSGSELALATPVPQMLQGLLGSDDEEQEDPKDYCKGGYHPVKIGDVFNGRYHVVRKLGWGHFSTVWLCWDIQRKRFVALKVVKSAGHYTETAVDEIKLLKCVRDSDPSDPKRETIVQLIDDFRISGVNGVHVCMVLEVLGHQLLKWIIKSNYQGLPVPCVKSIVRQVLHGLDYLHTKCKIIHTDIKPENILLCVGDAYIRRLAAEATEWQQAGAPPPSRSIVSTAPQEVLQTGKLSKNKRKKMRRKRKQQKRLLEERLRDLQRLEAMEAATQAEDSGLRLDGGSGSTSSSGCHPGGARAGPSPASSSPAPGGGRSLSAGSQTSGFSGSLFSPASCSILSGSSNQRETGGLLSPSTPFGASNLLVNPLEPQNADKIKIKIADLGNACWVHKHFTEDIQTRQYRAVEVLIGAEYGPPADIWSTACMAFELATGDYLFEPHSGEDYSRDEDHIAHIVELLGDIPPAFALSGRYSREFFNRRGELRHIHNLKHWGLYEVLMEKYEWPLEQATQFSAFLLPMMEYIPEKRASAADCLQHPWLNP
Procedure, shortened: as §1

TAK1 = molecular target: T5, TAK1 (Homo sapiens, UniProt O43318); conditions: TAK1, 1 μM; read-out: % control
T5 construct: purchased KinomeScan® (panel service)
T5 sequence (O43318 1-606): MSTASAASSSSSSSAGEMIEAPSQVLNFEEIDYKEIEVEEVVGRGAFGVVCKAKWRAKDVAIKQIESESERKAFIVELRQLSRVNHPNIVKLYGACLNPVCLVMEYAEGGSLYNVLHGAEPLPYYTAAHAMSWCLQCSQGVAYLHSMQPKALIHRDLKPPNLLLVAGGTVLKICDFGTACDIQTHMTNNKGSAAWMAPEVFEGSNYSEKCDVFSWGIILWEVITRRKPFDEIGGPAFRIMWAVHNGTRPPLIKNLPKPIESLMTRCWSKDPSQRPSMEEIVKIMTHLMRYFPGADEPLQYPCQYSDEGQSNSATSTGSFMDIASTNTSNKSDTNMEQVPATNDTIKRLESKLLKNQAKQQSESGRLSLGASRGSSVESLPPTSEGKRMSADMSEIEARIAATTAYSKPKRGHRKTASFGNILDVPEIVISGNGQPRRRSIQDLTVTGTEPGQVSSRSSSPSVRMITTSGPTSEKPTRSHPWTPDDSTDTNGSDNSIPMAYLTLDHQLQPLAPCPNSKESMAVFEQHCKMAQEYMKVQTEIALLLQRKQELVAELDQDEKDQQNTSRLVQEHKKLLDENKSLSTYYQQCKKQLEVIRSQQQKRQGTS
Procedure, shortened: as §1

T1 sequence (Q9NSY1 whole entry): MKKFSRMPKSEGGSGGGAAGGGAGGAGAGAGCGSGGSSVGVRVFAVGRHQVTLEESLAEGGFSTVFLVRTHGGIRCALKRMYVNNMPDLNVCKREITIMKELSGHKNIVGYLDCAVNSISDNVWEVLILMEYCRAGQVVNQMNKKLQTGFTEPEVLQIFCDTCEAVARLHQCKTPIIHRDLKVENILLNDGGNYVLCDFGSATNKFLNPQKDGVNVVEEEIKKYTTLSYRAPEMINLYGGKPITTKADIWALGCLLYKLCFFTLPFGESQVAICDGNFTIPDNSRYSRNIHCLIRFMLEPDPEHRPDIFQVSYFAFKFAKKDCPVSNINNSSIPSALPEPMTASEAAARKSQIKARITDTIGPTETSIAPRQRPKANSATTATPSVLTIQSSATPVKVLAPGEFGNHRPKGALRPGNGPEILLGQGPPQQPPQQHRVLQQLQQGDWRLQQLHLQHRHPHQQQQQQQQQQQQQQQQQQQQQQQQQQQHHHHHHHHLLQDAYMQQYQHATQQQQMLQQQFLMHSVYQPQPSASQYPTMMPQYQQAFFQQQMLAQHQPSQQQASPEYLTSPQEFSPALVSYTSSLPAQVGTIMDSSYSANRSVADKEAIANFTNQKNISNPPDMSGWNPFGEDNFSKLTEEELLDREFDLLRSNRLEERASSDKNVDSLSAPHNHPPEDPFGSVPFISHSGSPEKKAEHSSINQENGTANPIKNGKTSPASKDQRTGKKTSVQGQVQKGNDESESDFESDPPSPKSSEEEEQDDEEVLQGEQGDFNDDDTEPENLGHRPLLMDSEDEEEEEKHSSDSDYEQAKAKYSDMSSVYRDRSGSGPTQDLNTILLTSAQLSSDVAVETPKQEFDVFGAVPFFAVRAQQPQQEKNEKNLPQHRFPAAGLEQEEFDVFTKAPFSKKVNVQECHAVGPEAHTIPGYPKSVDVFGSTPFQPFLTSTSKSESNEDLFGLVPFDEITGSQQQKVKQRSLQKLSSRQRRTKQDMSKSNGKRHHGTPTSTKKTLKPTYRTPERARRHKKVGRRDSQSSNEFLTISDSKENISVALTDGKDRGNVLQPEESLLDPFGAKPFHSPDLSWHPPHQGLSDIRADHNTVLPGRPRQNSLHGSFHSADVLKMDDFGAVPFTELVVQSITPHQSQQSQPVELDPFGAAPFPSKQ

| SMILES | remaining binding at 1 µM (BIKE) [%] | remaining binding at 1 µM (DCAMKL3) [%] | remaining binding at 1 µM (LZK) [%] | remaining binding at 1 µM (PCTK3) [%] | remaining binding at 1 µM (SRPK3) [%] | remaining binding at 1 µM (TAK1) [%] |
| --- | --- | --- | --- | --- | --- | --- |
| CNc1c(-c2cnn([C@H]3CCN(C(C)=O)C[C@@H]3F)c2)cnc2[nH]cc(Cl)c12 [Compound 77, 1-((3S,4S)-4-(4-(3-chloro-4-(methylamino)-1H-pyrrolo[2,3-b]pyridin-5-yl)-1H-pyrazol-1-yl)-3-fluoropiperidin-1-yl)ethan-1-one] | 0.4 | 95 | 61 | 100 | 16 | 21 |
| CNc1c(-c2ccc(C(=O)N3CCC(N4CCOCC4)CC3)cc2)cnc2[nH]cc(Cl)c12 [Compound 96, (4-(3-chloro-4-(methylamino)-1H-pyrrolo[2,3-b]pyridin-5-yl)phenyl)(4-morpholinopiperidin-1-yl)methanone] | 0.85 | 99 | 89 | 100 | 17 | 6.9 |
| O=C(c1ccc(-c2cnc3[nH]cc(Cl)c3c2NC2CCCC2)cc1)N1CCC(N2CCOCC2)CC1 [Compound 101, (4-(3-chloro-4-(cyclopentylamino)-1H-pyrrolo[2,3-b]pyridin-5-yl)phenyl)(4-morpholinopiperidin-1-yl)methanone] | 6.8 | 84 | 76 | 96 | 9.9 | 6.1 |
